≈ marks a conversion by molar mass, not a printed value.
Tests used:
Assay in all cases: Antibacterial activity test (MIC)
Settings in all cases: Mueller-Hinton Broth, 37° C., 20 to 24 hours
MRSA 97-115 = assay type: cell-based, methicillin-resistant Staphylococcus aureus
Protocol: (§1) Regarding compounds obtained in respective Working Examples, in order to investigate antibacterial activity, minimal inhibitory concentration (MIC) was determined according to a standard method of Japanese Society of Chemotherapy.
(§2) As a test bacterium, nine kinds of S. aureus 209PJC, MRSA 97-115, MRSA KM 97-53, MRSA KM97-108, VRE 49, E. coli NIHJ JC-2, P. aeruginosa PAO-1, P. aeruginosa No. 12, P. aeruginosa KM97-5 were used and, as a medium, Mueller-Hinton Broth (DIFCO) was used. One platinum loop of a test bacterium was inoculated into 20 ml of a medium, and static culture was carried out at 37° C. for 16 to 20 hours, and then each bacterium species was diluted with a sterilized physiological saline to 10^5/ml, which was used as a test bacterium solution.
(§3) Then, each compound was dissolved in methanol, subjected to ½ stepwise dilution with a medium to prepare a medium for measuring sensitivity, and each 2 ml was dispensed into a test tube. A compound concentration in a medium was adjusted to 100 μg/ml and its 2^n-fold (n=−10 to 1).
(§4) Numerical values in Tables represent MIC expressed in μg/ml unit.

S. aureus 209PJC = assay type: cell-based
Protocol: as §1, §2, §3, §4

P. aeruginosa PAO-1 = assay type: cell-based
Protocol: as §1, §2, §3, §4

E. coli NIHJ JC-2 = assay type: cell-based
Protocol: as §1, §2, §3, §4

Compound | minimal inhibitory concentration (MIC) (MRSA 97-115) [µg/mL] | minimal inhibitory concentration (MIC) (S. aureus 209PJC) [µg/mL] | minimal inhibitory concentration (MIC) (P. aeruginosa PAO-1) [µg/mL] | minimal inhibitory concentration (MIC) (E. coli NIHJ JC-2) [µg/mL]
CCCCCCCCCC1N=C(N)NC(Nc2ccc(C(C)(C)C)cc2)=N1.Cl (stereo not drawn) [compound 23] | 1.6 | 0.8 | >100 | >100
CCCCCCCCC1N=C(N)N=C(N)N1c1cc(C(C)(C)C)ccc1OC.Cl (stereo not drawn) [compound 24] | 1.6 | 1.6 | 50 | 50
CCCCCCCCC1N=C(N)N=C(N)N1c1ccc(OC(F)(F)F)cc1.Cl (stereo not drawn) [compound 26] | 6.3 | 3.1 | 50 | 50
CCCCCCCCC1N=C(N)NC(Nc2ccc(OC(F)(F)F)cc2)=N1.Cl (stereo not drawn) [compound 27] | 1.6 | 1.6 | >100 | 25
CCCCCCCCCC1N=C(N)N=C(N)N1c1ccc(OC(F)(F)F)cc1.Cl (stereo not drawn) [compound 28] | 3.1 | 1.6 | 50 | 25
CCCCCCCCCC1N=C(N)NC(Nc2ccc(OC(F)(F)F)cc2)=N1.Cl (stereo not drawn) [compound 29] | 1.6 | 0.8 | >100 | >100
CCCCCCCCCC1N=C(N)N=C(N)N1c1ccc(F)c(F)c1F.Cl (stereo not drawn) [compound 30] | 3.1 | 1.6 | 50 | 25
CCCCCCCCCCC1N=C(N)NC(Nc2ccc(F)c(F)c2F)=N1.Cl (stereo not drawn) [compound 32] | 1.6 | 0.8 | 100 | 25
CCCCCCCCCCC1N=C(N)N=C(N)N1c1ccc(F)cc1F.Cl (stereo not drawn) [compound 33] | 3.1 | 1.6 | 50 | 25
CCCCCCCCCCC1N=C(N)NC(Nc2ccc(F)cc2F)=N1 (stereo not drawn) [compound 34] | 1.6 (≈ 4.38 µM) | 1.6 (≈ 4.38 µM) | 100 (≈ 274 µM) | 50 (≈ 137 µM)
CCCCCCCCCCNC1=NC(C)(C)N=C(NCc2ccc(OC)cc2)N1.O=C(O)CC(=O)O [compound 39] | 0.8 | 0.4 | 50 | 25
CCCCCCCCCCNC1=NC(C)(C)N=C(NCc2ccc(OC)cc2)N1.O=C(O)C(=O)O [compound 40] | 0.8 | 0.4 | 25 | 25
CCCCCCCCCCNC1=NC(C)(C)N=C(NCc2ccccc2)N1.O=C(O)C(=O)O [compound 42] | 1.6 | 0.8 | 12.5 | 12.5
CCCCCCCCCNC1=NC(C)(C)N=C(NCc2ccccc2)N1.O=C(O)O [compound 47] | 0.8 | 0.4 | 12.5 | 12.5
CCCCCCCCCCCNC1=NC(C)(C)N=C(NCc2ccccc2)N1.O=C(O)C(=O)O [compound 51] | 0.8 | 0.4 | 100 | 50
CC(=O)O.CCCCCCCCNC1=NC(C)(C)N=C(NCc2ccccc2)N1 [compound 52] | 1.6 | 0.8 | 25 | 12.5
CCCCCCCNC1=NC(CC)(CC)N=C(NCc2ccccc2)N1.Cl [compound 53] | 3.1 | 1.6 | 100 | 50

Compound | minimal inhibitory concentration (MIC) (MRSA 97-115) [µg/mL] | minimal inhibitory concentration (MIC) (S. aureus 209PJC) [µg/mL] | minimal inhibitory concentration (MIC) (P. aeruginosa PAO-1) [µg/mL] | minimal inhibitory concentration (MIC) (E. coli NIHJ JC-2) [µg/mL]
CC(=O)O.CCCCCCCNC1=NC2(CCCC2)N=C(NCc2ccccc2)N1 [compound 54] | 1.6 | 0.8 | 100 | 50
CCCCCCCCCCNC1=NC(C)(C)N=C(NCCc2ccccc2)N1.O=C(O)CC(=O)O [compound 55] | 0.8 | 0.4 | 50 | 12.5
CC(=O)O.CCCCCCCCNC1=NC(C)(C)N=C(NCCc2ccccc2)N1 [compound 57] | 1.6 | 0.8 | 25 | 25
CC(=O)O.CCCCCCCNC1=NC(C)(C)N=C(NCc2ccc(C)cc2)N1 [compound 59] | 1.6 | 0.8 | 50 | 25
CCCCCCCCCCNC1=NC(C)(C)N=C(NCc2ccc(C(=O)O)cc2)N1.Cl [compound 60] | 6.3 | 3.1 | >100 | >100
CCCCCCCCCNC1=NC(C)(C)N(c2ccccc2)C(N)=N1.Cl [compound 61] | 6.3 | 6.3 | >100 | >100
CC(=O)O.CCCCCCCCCNC1=NC(C)(C)N=C(Nc2ccccc2)N1 [compound 62] | 0.8 | 0.8 | 12.5 | 12.5
CCCCCCCCNC1=NC(C)(C)N(c2cccc3ccccc23)C(N)=N1.Cl [compound 63] | 6.3 | 6.3 | 100 | 100
CCCCCCCCNC1=NC(C)(C)N=C(Nc2cccc3ccccc23)N1 [compound 64] | 0.8 (≈ 2.11 µM) | 0.8 (≈ 2.11 µM) | 25 (≈ 65.9 µM) | 25 (≈ 65.9 µM)
CC(=O)O.CCCCCCCCNC1=NC(C)(C)N=C(NCCCCCCCC)N1 [compound 66] | 1.6 | 0.8 | >100 | 100
CC(=O)O.CCCCCCCCNC1=NC(C)(C)N=C(NCCCCCCC)N1 [compound 67] | 1.6 | 0.8 | 100 | 100
CC(=O)O.CCCCCCCNC1=NC(C)(C)N=C(NCCCCCC)N1 [compound 70] | 1.6 | 0.8 | 25 | 25
CC(=O)O.CCCCCCCNC1=NC(C)(C)N=C(NC(C)(C)CC(C)(C)C)N1 [compound 71] | 0.8 | 0.8 | 100 | 100
CC(=O)O.CCCCCCCCCCCCNC1=NC(C)(C)N=C(NCC)N1 [compound 73] | 1.6 | 0.8 | 50 | 12.5
CC(=O)O.CCCCCCCCNC1=NCN=C(NCCCCCCCC)N1 [compound 74] | 0.8 | 0.8 | 100 | 12.5
CCCCCCCCCCCCNC1=NC(C)(C)N=C(N)N1.O=[N+]([O-])O [compound 75] | 3.1 | 0.8 | 50 | 25
